In patent publication US10722437B2, “Cosmetic agents with “improved protection against body odor”” (Henkel AG & Co. KGaA, priority 2016, dated 2020):

Tested on: body odor
Experiment: Neutralization of body odor: specimen on left armpit vs anti-transpirant base suspension on right armpit, worn T-shirt rated by trained persons
Format: in vivo, human
Details: statement in words on the body odor test; 0.3 wt. % in anti-transpirant base suspension
Method: The following anti-transpirant base suspension was used to determine the synergistic effect with respect to the neutralization of body odor (values in wt. %):
Each of the following cyclical alcohols of the Formula (I) and/or menthyl compounds of the Formula (II) were added to said composition, wherein the total concentration of alcohol and/or menthyl compound in the suspension is 0.3 wt. % (all values in wt. %, relative to the used anti-transpirant suspension):
Said suspensions, each with a weight ratio of 15:85, were then placed in aerosol cans with a propellant mixture of propane and n-butane (weight ratio 15:85). Specimens No. 1 to 11 were each applied to the left armpit, the anti-transpirant base suspension to the right armpit. 24 hours after application, the body odor on the worn T-shirt on the left armpit (treated with specimens No. 1 to 11) were compared to the body odor of the right armpit (treated with anti-transpirant base suspension) by trained persons. The following rating scale was used: 0=no difference between specimen No. 1 to 11 and anti-transpirant base suspension; +=body odor reduced compared to anti-transpirant base suspension; ++=body odor no longer discernible on the T-shirt.

Structure (SMILES)	deodorizing effect
CC(CO)CCCC1CCCCC1 (stereo not drawn) [2-methyl-5-cyclohexylpentanol]	a deodorizing effect is achieved
CC(=O)O[C@@H]1C[C@H](C)CC[C@H]1C(C)C [menthylacetate]	deodorizing effect
CC(O)C1CCCCC1 (stereo not drawn) [1-cyclohexylethanol]	deodorizing effect
